In brackets after ≈: the same amount, converted by molar mass. Like-named read-outs stand apart in the source and are kept apart here.
Key:
[1] = test system: M. pneumoniae ATCC 15492; assay: MIC against Mycoplasma in vitro (Friis broth with agarose); format: cell-based; details: Mycoplasmoides pneumoniae, ATCC15492, 144 h; M. pneumoniae ATCC 15492; 6 days at 37° C; read-out: MIC
[2] = test system: M. hyopneumoniae PW/C/210; assay: as above; format: cell-based; details: Mesomycoplasma hyopneumoniae, 144 h; M. hyopneumoniae PW/C/210; 6 days at 37° C; read-out: MIC
[3] = test system: Staph. aureus Oxford; assay: MIC against veterinary bacteria in vitro (Diagnostic Sensitivity Test Agar); details: Staphylococcus aureus, 18 h
Experimental: (§2) The activity of the normonyl derivatives of the Examples against various veterinarily important bacteria, was assayed in vitro using two-fold serial dilutions in Diagnostic Sensitivity Test Agar inoculated with 10^4 organisms.

[4] = test system: M. hyorhinis ATCC 23234; assay: MIC against Mycoplasma in vitro (Friis broth with agarose); format: cell-based; details: Mesomycoplasma hyorhinis, ATCC23234, 144 h; M. hyorhinis ATCC 23234; 6 days at 37° C; read-out: MIC
[5] = test system: Neisseria catarrhalis 1502; assay: MIC against human bacteria in vitro (nutrient agar, chocolated horse blood); format: cell-based; details: human; Neisseria catarrhalis 1502; 18 hours at 37° C; read-out: MIC
Summary of the method: (§1)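 Agar dilution series; medium supplemented with 5% chocolated horse blood; MIC taken from the dilution series.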

[6] = test system: M. hyopneumoniae NB12; assay: MIC against Mycoplasma in vitro (Friis broth with agarose); format: cell-based; details: Mesomycoplasma hyopneumoniae
[7] = test system: M. bovigenitalium ATCC 14173; assay: as above; format: cell-based; details: 144 h; M. bovigenitalium ATCC 14173; 6 days at 37° C; read-out: MIC
[8] = test system: M. hyopneumoniae JF 435; assay: as above; format: cell-based; details: Mesomycoplasma hyopneumoniae, JF435, 144 h; M. hyopneumoniae JF 435; 6 days at 37° C; read-out: MIC
[9] = test system: M. dispar NCTC 10125; assay: as above; format: cell-based; details: 144 h
[10] = test system: Strep. dysgalactiae SPD1; assay: MIC against veterinary bacteria in vitro (Diagnostic Sensitivity Test Agar); details: Streptococcus dysgalactiae, SPD1, 18 h
Experimental: as §2

[11] = test system: B. subtilis ATCC 6633; assay: as above; details: Bacillus subtilis, ATCC6633, 18 h
Experimental: as §2

[12] = test system: M. hyopneumoniae Str. 11; assay: MIC against Mycoplasma in vitro (Friis broth with agarose); format: cell-based; details: Mesomycoplasma hyopneumoniae
[13] = test system: Strep. suis (group D) SPS11; assay: MIC against veterinary bacteria in vitro (Diagnostic Sensitivity Test Agar); details: Streptococcus suis, 18 h
Experimental: as §2

[14] = test system: Past. multocida PA2; assay: as above; details: Pasteurella multocida, PA2, 18 h
Experimental: as §2

[15] = test system: M. hyorhinis ATCC 25021; assay: MIC against Mycoplasma in vitro (Friis broth with agarose); format: cell-based; details: Mesomycoplasma hyorhinis, ATCC25021, 144 h; M. hyorhinis ATCC 25021; 6 days at 37° C; read-out: MIC
[16] = test system: M. gallisepticum S6; assay: as above; format: cell-based; details: Mycoplasmoides gallisepticum, 144 h; M. gallisepticum S6; 6 days at 37° C; read-out: MIC
[17] = test system: Bord. bronchiseptica B08; assay: MIC against veterinary bacteria in vitro (Diagnostic Sensitivity Test Agar); details: Bordetella bronchiseptica, B08, 18 h
Experimental: as §2

[18] = test system: Past. multocida PA1; assay: as above; details: Pasteurella multocida, PA1, 18 h
Experimental: as §2

[19] = test system: S. typhimurium S18; assay: as above; details: Salmonella enterica, 18 h
Experimental: as §2

[20] = test system: Past. haemolytica PA5; assay: as above; details: Mannheimia haemolytica, PA5, 18 h
Experimental: as §2

[21] = test system: M. hyopneumoniae MS 16; assay: MIC against Mycoplasma in vitro (Friis broth with agarose); format: cell-based; details: Mesomycoplasma hyopneumoniae, MS16, 144 h; M. hyopneumoniae MS 16; 6 days at 37° C; read-out: MIC
[22] = test system: Staph. aureus B4 (pen. resistant); assay: MIC against veterinary bacteria in vitro (Diagnostic Sensitivity Test Agar); details: Staphylococcus aureus, 18 h
Experimental: as §2

[23] = test system: M. hyopneumoniae HK (2); assay: MIC against Mycoplasma in vitro (Friis broth with agarose); format: cell-based; details: Mesomycoplasma hyopneumoniae, 144 h; M. hyopneumoniae HK (2); 6 days at 37° C; read-out: MIC
[24] = test system: Strep. pneumoniae CN33; assay: MIC against human bacteria in vitro (nutrient agar, chocolated horse blood); format: cell-based; details: Streptococcus pneumoniae; human; Strep. pneumoniae CN33; 18 hours at 37° C; read-out: MIC
Summary of the method: as §1

[25] = test system: Haemophilus influenzae Q1; assay: as above; format: cell-based; details: human; Haemophilus influenzae Q1; 18 hours at 37° C; read-out: MIC
Summary of the method: as §1

[26] = test system: M. hyopneumoniae LABER; assay: MIC against Mycoplasma in vitro (Friis broth with agarose); format: cell-based; details: Mesomycoplasma hyopneumoniae, 144 h; M. hyopneumoniae LABER; 6 days at 37° C; read-out: MIC
[27] = 144 h, M. hyopneumoniae NB12, 6 days at 37° C, read-out: MIC
[28] = 144 h, M. hyopneumoniae Str. 11, 6 days at 37° C, read-out: MIC
[29] = M. dispar NCTC 10125, 6 days at 37° C, read-out: MIC

| Structure (SMILES) | MIC [1] [µg/mL] | MIC [2] [µg/mL] | MIC [3] [µg/mL] | MIC [4] [µg/mL] | MIC [5] [µg/mL] | MIC [7] [µg/mL] | MIC [8] [µg/mL] | MIC [10] [µg/mL] | MIC [13] [µg/mL] | MIC [14] [µg/mL] | MIC [15] [µg/mL] | MIC [16] [µg/mL] | MIC [17] [µg/mL] | MIC [18] [µg/mL] | MIC [19] [µg/mL] | MIC [20] [µg/mL] | MIC [21] [µg/mL] | MIC [22] [µg/mL] | MIC [23] [µg/mL] | MIC [24] [µg/mL] | further results |
| --- | --- | --- | --- | --- | --- | --- | --- | --- | --- | --- | --- | --- | --- | --- | --- | --- | --- | --- | --- | --- | --- |
| CC(=Cc1nnc(-c2cccc(C#N)c2)o1)CC1OCC(CC2OC2C(C)C(C)O)C(O)C1O (centres unmarked) [Example 11, 2-(m-Cyanophenyl)-5-(1-normon-2-yl)-1,3,4-oxadiazole A] | > 10 | 0.1 (≈ 0.213 µM) | 5 (≈ 10.6 µM) | 0.1 (≈ 0.213 µM) | 0.25 (≈ 0.532 µM) | 0.1 (≈ 0.213 µM) | 0.25 (≈ 0.532 µM) | 2.5 (≈ 5.32 µM) | > 80 | 0.312 (≈ 0.664 µM) | 0.1 (≈ 0.213 µM) | > 10 | > 80 | 2.5 (≈ 5.32 µM) | > 80 | 10 (≈ 21.3 µM) | 0.1 (≈ 0.213 µM) | 20 (≈ 42.6 µM) |  |  | MIC ([6]; NB12, 144 h): 0.25 µg/mL (≈ 0.532 µM); MIC [9]: 0.05 µg/mL (≈ 0.106 µM); MIC [11]: 2.5 µg/mL (≈ 5.32 µM); MIC ([12]; STR.11, 144 h): 0.25 µg/mL (≈ 0.532 µM) |
| CC(=Cc1nnnn1Cc1ccc([N+](=O)[O-])cc1)CC1OCC(CC2OC2C(C)C(C)O)C(O)C1O (centres unmarked) [Example 12, 1-(p-Nitrobenzyl)-5-(1-normon-2-yl)tetrazole A] | > 10 | 2.5 (≈ 4.96 µM) | > 80 | 5 (≈ 9.93 µM) | 10 (≈ 19.9 µM) |  | 5 (≈ 9.93 µM) | > 80 | > 80 | > 80 | 2.5 (≈ 4.96 µM) | > 10 | > 80 | > 80 | > 80 | > 80 | 2.5 (≈ 4.96 µM) | > 80 | 5 (≈ 9.93 µM) | 100 (≈ 199 µM) | MIC [25]: 1 µg/mL (≈ 1.99 µM); MIC [6, 27]: 5 µg/mL (≈ 9.93 µM); MIC [9]: 1 µg/mL (≈ 1.99 µM); MIC [12, 28]: 2.5 µg/mL (≈ 4.96 µM) |
| COC(=O)CCCCCCCCn1nnnc1C=C(C)CC1OCC(CC2OC2C(C)C(C)O)C(O)C1O (centres unmarked) [Example 13, 1-(8-Methoxycarbonyloctyl)-5-(1-normon-2-yl)-1H-tetrazole A] | > 10 | > 10 | 40 (≈ 74.3 µM) | > 10 | 64 (≈ 119 µM) | 5 (≈ 9.28 µM) | > 10 | > 80 | > 80 | 5 (≈ 9.28 µM) | > 10 | > 10 | > 80 | 40 (≈ 74.3 µM) | > 80 | > 80 | > 10 | > 80 | > 10 | > 64 | MIC [6, 27]: > 10 µg/mL; MIC [9, 29]: > 10 µg/mL; MIC [12, 28]: > 10 µg/mL; MIC [26]: > 10 µg/mL |
| CC(=Cc1nnnn1CCCCCCCCC(=O)O)CC1OCC(CC2OC2C(C)C(C)O)C(O)C1O (centres unmarked) [Example 14, Sodium 1-(8-carboxylatooctyl)-5-(1-normon-2-yl)-1H-tetrazole A] | > 10 |  | > 80 | > 10 | > 128 | 10 | > 10 | > 80 | > 80 | 1.25 | > 10 | > 10 | > 80 | 80 | > 80 | > 80 | > 10 | > 80 | > 10 | > 128 | MIC [6, 27]: > 10 µg/mL; MIC [9, 29]: 10 µg/mL; MIC [12, 28]: > 10 µg/mL; MIC [26]: > 10 µg/mL |
